Test results: US11447486B2, “2-amino-benzimidazole derivatives and their use as 5-lipoxygenase and/or prostaglandin E synthase inhibitors” (INSTITUT PASTEUR KOREA, priority 2014, dated 2022)
Where two headings read alike, the source gives them in different places.

Assays:
human 5-LOX = molecular target: T1, human 5-LOX (Homo sapiens, UniProt P09917); experiment: 5-LOX enzyme activity, fluorescence method (5-HPETE, H2DCFDA); format: biochemical
T1 construct: purchased Cayman 60402; host or cells: insect cells (lysate)
T1 sequence (P09917 1-674): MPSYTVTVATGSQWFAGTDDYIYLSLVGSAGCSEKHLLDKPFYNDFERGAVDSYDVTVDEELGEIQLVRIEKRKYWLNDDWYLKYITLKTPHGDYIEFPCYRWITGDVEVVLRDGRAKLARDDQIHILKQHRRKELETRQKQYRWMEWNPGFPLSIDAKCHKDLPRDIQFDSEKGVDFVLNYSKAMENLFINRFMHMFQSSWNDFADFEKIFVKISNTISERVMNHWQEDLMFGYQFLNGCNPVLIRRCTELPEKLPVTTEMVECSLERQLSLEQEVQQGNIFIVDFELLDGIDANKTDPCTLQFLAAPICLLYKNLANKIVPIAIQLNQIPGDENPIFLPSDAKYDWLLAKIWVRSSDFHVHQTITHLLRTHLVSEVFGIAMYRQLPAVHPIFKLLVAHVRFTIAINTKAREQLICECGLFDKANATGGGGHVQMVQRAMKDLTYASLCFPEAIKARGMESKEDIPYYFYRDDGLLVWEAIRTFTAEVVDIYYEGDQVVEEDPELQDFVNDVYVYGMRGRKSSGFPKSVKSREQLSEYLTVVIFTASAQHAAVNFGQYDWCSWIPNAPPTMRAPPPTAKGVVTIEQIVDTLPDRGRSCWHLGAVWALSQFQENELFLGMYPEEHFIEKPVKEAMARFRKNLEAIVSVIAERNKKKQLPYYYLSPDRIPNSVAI
How it was run: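 Compound (0.5 nM to 10 uM) pre-incubated 5 min with enzyme; reaction started with ATP (100 uM final) and arachidonic acid (3 uM final). All steps at room temperature, fluorescence read-out.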

[1] = test system: Rat basophilic leukemia (RBL) cells; experiment: LTB4 secretion assay in RBL (rat basophilic leukemia cells); format: cell-based
How it was run: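 Cells seeded 2×10^4/well the day before, then pre-incubated 15 min at 37 °C in EMEM/0.5% FBS with compound (5 nM to 100 uM). Stimulation with 2.5 uM arachidonic acid plus 5 uM A23187 (final) for 10 min at 37 °C; LTB4 in supernatant quantified by EIA.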

Rat whole blood (RWB) = experiment: LTB4 secretion assay in RWB (rat whole blood); format: cell-based
How it was run: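 Heparinized blood from male Sprague Dawley rats (6-9 weeks) diluted 1:1 in RPMI, pre-incubated 15 min at 37 °C with compound (2.5 nM to 50 uM). Stimulated with 10 uM calcium ionophore A23187 for 10 min at 37 °C, stopped with ice-cold PBS; LTB4 in supernatant quantified by EIA.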

Compound | melting point | IC50 (human 5-LOX; read-out: 5-LO (IC50)) | EC50 ([1]; Rattus norvegicus, RBL) | EC50 (Rat whole blood (RWB); Rattus norvegicus) | EC50 [1] | EC50 (Rat whole blood (RWB)) | IC50 (human 5-LOX; 5-LO (IC50, uM)) | EC50 ([1]; Rattus norvegicus)
Cc1cnn(-c2nc3cc(N4CCN(c5ccc(F)cc5)CC4)ccc3[nH]2)c1 [Compound 25] | > 220 °C | > 10 µM |  |  |  |  |  | 
Nc1ccc2[nH]c(N3CCC(Oc4ccc(F)cc4)CC3)nc2c1 [Compound 34] | 193.3 to 205 °C | < 1 µM | 10 to 20 µM |  |  |  |  | 
CC(C)(C)c1ccc(Oc2ccc(CNc3nc4cc(N)ccc4[nH]3)cc2)cc1 [Compound 117] | > 207.2 °C | < 1 µM | 10 to 20 µM |  |  |  |  | 
Nc1ccc2[nH]c(NCc3ccc(S(=O)(=O)Nc4ccc(Cl)cc4)cc3)nc2c1 [Compound 151] | > 200 °C | < 1 µM | > 20 µM |  |  |  |  | 
Nc1ccc2nc(NCc3ccc(Cl)cn3)[nH]c2c1 [Compound 158] | 101.8 to 104 °C |  |  |  |  |  | < 1 µM | > 20 µM
Cn1c(NCc2ccc(Oc3ccc(F)cn3)cc2)nc2ccc(N)cc21 [Compound 301] | 121.4 to 124.6 °C | < 1 µM | < 10 µM |  |  |  |  | 
CCn1c(NCc2ccc(Oc3cnc(Cl)cn3)cc2)nc2ccc(Nc3cc(C(C)(C)C)[nH]n3)cc21 [Compound 514] |  | < 1 µM | < 10 µM | < 10 µM |  |  |  | 
CCn1c(NCc2ccc(Oc3ncc(C(F)(F)F)cn3)cc2)nc2ccc(Nc3n[nH]c(C)c3Cl)cc21 [Compound 516] |  | > 10 µM |  |  | < 10 µM | < 10 µM |  | 
CCC(Nc1nc2ccc(Nc3cc(C(F)(F)F)n(C)n3)cc2n1C)c1ccc(Oc2cnc(Cl)cn2)cc1 (centres unmarked) [Compound 517] |  | 1 to 10 µM | < 10 µM | < 10 µM |  |  |  | 
Cc1[nH]nc(Nc2ccc3nc(NCc4ccc(Oc5ccc(Cl)cn5)cc4)n(C)c3c2)c1Cl [Compound 518] |  | > 10 µM | < 10 µM | < 10 µM |  |  |  | 
Cn1nc(Nc2ccc3nc(NCc4ccc(Oc5ncc(C(F)(F)F)cn5)cc4)n(C)c3c2)cc1C(F)(F)F [Compound 519] |  | > 10 µM | < 10 µM | < 10 µM |  |  |  | 
CCn1c(NCc2ccc(Oc3cnc(C(F)(F)F)cn3)cc2)nc2ccc(Nc3cc(C(F)(F)F)n(C)n3)cc21 [Compound 523] |  | > 10 µM | < 10 µM | 10 to 20 µM |  |  |  | 
Cn1nc(Nc2cc(F)c3nc(NCc4ccc(Oc5ncc(Cl)cn5)cc4)n(C)c3c2)cc1C(F)(F)F [Compound 524] |  | > 10 µM | < 10 µM | 10 to 20 µM |  |  |  | 
CCn1c(NCc2ccc(Oc3ncc(C(F)(F)F)cn3)cc2)nc2ccc(Nc3ccn(C)n3)cc21 [Compound 525] |  | < 1 µM | < 10 µM | < 10 µM |  |  |  | 
Cn1nc(C(F)(F)F)cc1Nc1ccc2nc(NCc3ccc(Oc4ncc(Cl)cn4)cc3)n(C)c2c1 [Compound 526] |  | 1 to 10 µM | < 10 µM | < 10 µM |  |  |  | 
CCn1c(NCc2ccc(Oc3ncc(C(F)(F)F)cn3)cc2F)nc2ccc(Nc3cc(C(F)(F)F)n(C)n3)cc21 [Compound 527] |  | > 10 µM | < 10 µM | < 10 µM |  |  |  | 

Compound | melting point | IC50 (human 5-LOX; read-out: 5-LO (IC50)) | EC50 ([1]; Rattus norvegicus, RBL) | EC50 (Rat whole blood (RWB); Rattus norvegicus) | EC50 [1] | EC50 (Rat whole blood (RWB)) | IC50 (human 5-LOX; 5-LO (IC50, uM)) | EC50 ([1]; Rattus norvegicus)
CCC(Nc1nc2ccc(Nc3cc(C(F)(F)F)n(C)n3)cc2n1C)c1ccc(Oc2ncc(C(F)(F)F)cn2)cc1F (centres unmarked) [Compound 528] |  | > 10 µM | < 10 µM | < 10 µM |  |  |  | 
CCn1c(NCc2ccc(Oc3ncc(C(F)(F)F)cn3)cc2)nc2ccc(Nc3cc(C)[nH]n3)cc21 [Compound 531] |  | < 1 µM | < 10 µM | < 10 µM |  |  |  | 
Cn1nc(Nc2ccc3nc(NCc4ccc(Oc5ncc(Cl)cn5)cc4)n(C)c3c2)cc1C(F)F [Compound 532] |  | < 1 µM | < 10 µM | < 10 µM |  |  |  | 
Cn1nc(C(F)F)cc1Nc1ccc2nc(NCc3ccc(Oc4ncc(Cl)cn4)cc3)n(C)c2c1 [Compound 533] |  | < 1 µM | < 10 µM | < 10 µM |  |  |  | 
CCC(Nc1nc2ccc(Nc3cc(C)[nH]n3)cc2n1C)c1ccc(Oc2ncc(C(F)(F)F)cn2)cc1 (centres unmarked) [Compound 534] |  | < 1 µM | < 10 µM | < 10 µM |  |  |  | 
Cn1nc(Nc2ccc3nc(NCc4ccc(Oc5ncc(Cl)cn5)cc4)n(C)c3c2)cc1CF [Compound 538] |  | < 1 µM | < 10 µM | < 10 µM |  |  |  | 
CCC(Nc1nc2ccc(Nc3cc(C)[nH]n3)cc2n1C)c1ccc(Oc2ncc(C(F)(F)F)cn2)cc1F (centres unmarked) [Compound 541] |  | < 1 µM | < 10 µM | < 10 µM |  |  |  | 
CCC(Nc1nc2ccc(NC3COC3)cc2n1C)c1ccc(Oc2ncc(C(F)(F)F)cn2)cc1F (centres unmarked) [Compound 543] |  | < 1 µM | < 10 µM | < 10 µM |  |  |  | 
CCn1c(NCc2ccc(Oc3ncc(OC(F)(F)F)cn3)cc2)nc2ccc(Nc3cc(C(F)(F)F)n(C)n3)cc21 [Compound 545] |  | 1 to 10 µM | < 10 µM | < 10 µM |  |  |  | 
Cn1c(NCc2ccc(Oc3ccc(C(F)(F)F)cn3)cc2F)nc2ccc(NC3COC3)cc21 [Compound 546] |  | < 1 µM | < 10 µM | < 10 µM |  |  |  | 
CCC(Nc1nc2ccc(NC3COC3)cc2n1C)c1ccc(Oc2ncc(C(F)(F)F)cn2)cc1 (centres unmarked) [Compound 547] |  | < 1 µM | < 10 µM | < 10 µM |  |  |  | 
CCC(Nc1nc2ccc(NC3COC3)cc2n1C)c1ccc(Oc2ccc(C(F)(F)F)cn2)cc1F (centres unmarked) [Compound 550] |  | < 1 µM | < 10 µM | < 10 µM |  |  |  | 
Cn1c(NCc2ccc(Oc3ccc(C(F)(F)F)cn3)cc2)nc2c(F)cc(NC3COC3)cc21 [Compound 552] |  | < 1 µM | < 10 µM | 10 to 20 µM |  |  |  | 
Cn1c(NCc2ccc(Oc3ncc(Cl)cn3)cc2)nc2c(F)cc(NC3COC3)cc21 [Compound 554] |  | < 1 µM | 10 to 20 µM | < 10 µM |  |  |  | 
CCn1c(NCc2ccc(Oc3ncc(Cl)cn3)cc2)nc2c(F)cc(NC3COC3)cc21 [Compound 555] |  | < 1 µM | 10 to 20 µM | 10 to 20 µM |  |  |  | 

Now from value to compound, other results behind:

melting point | IC50 (human 5-LOX; read-out: 5-LO (IC50)) | EC50 ([1]; Rattus norvegicus, RBL) | EC50 (Rat whole blood (RWB); Rattus norvegicus) | EC50 [1] | EC50 (Rat whole blood (RWB)) | Compound | IC50 (human 5-LOX; 5-LO (IC50, uM)) | EC50 ([1]; Rattus norvegicus)
> 142.9 °C (dec.) | 1 to 10 µM | > 20 µM |  |  |  | O=C(Nc1nc2cc(NCc3cnc[nH]3)ccc2[nH]1)c1ccc(F)cc1 [Compound 27] |  | 
178.2 to 179.6 °C | 1 to 10 µM | 10 to 20 µM |  |  |  | Nc1ccc2c(c1)nc(N)n2CCc1ccc(F)cc1 [Compound 42] |  | 
> 220 °C | < 1 µM | > 20 µM |  |  |  | Nc1ccc2[nH]c(NCc3ccc(N4CCC(c5ccc(Cl)cc5)CC4)cc3)nc2c1 [Compound 115] |  | 
 | < 1 µM | < 10 µM | < 10 µM |  |  | CCn1c(NCc2ccc(Oc3ncc(Cl)cn3)cc2)nc2ccc(Nc3cc(C(C)(C)C)[nH]n3)cc21 [Compound 509] |  | 
 | < 1 µM | < 10 µM | < 10 µM |  |  | CCn1c(NCc2ccc(Oc3ncc(Cl)cn3)cc2)nc2ccc(Nc3n[nH]c(C)c3Cl)cc21 [Compound 512] |  | 
 | < 1 µM |  |  | < 10 µM | < 10 µM | CCn1c(NCc2ccc(Oc3ncc(C(F)(F)F)cn3)cc2)nc2ccc(Nc3cc(C(C)(C)C)[nH]n3)cc21 [Compound 513] |  | 
 | < 1 µM | < 10 µM | < 10 µM |  |  | CCC(Nc1nc2ccc(Nc3cc(C(C)C)[nH]n3)cc2n1C)c1ccc(Oc2ncc(Cl)cn2)cc1 (centres unmarked) [Compound 529] |  | 
 | < 1 µM | < 10 µM | < 10 µM |  |  | CCC(Nc1nc2ccc(Nc3cc(C4CC4)[nH]n3)cc2n1C)c1ccc(Oc2ncc(Cl)cn2)cc1 (centres unmarked) [Compound 530] |  | 
 | < 1 µM | < 10 µM | < 10 µM |  |  | CCC(Nc1nc2ccc(Nc3cc(C(F)F)[nH]n3)cc2n1C)c1ccc(Oc2ncc(Cl)cn2)cc1 (centres unmarked) [Compound 535] |  | 
 | < 1 µM | < 10 µM | < 10 µM |  |  | CCn1c(NCc2ccc(Oc3ncc(Cl)cn3)cc2F)nc2ccc(Nc3cc(C)[nH]n3)cc21 [Compound 536] |  | 
 | < 1 µM | < 10 µM | < 10 µM |  |  | CCC(Nc1nc2ccc(Nc3cc(C)[nH]n3)cc2n1C)c1ccc(Oc2ncc(Cl)cn2)cc1F (centres unmarked) [Compound 537] |  | 
 | < 1 µM | < 10 µM | < 10 µM |  |  | CCn1c(NCc2ccc(Oc3ncc(C(F)(F)F)cn3)cc2F)nc2ccc(Nc3cc(C)[nH]n3)cc21 [Compound 540] |  | 
 | < 1 µM | < 10 µM | < 10 µM |  |  | CCn1c(NCc2ccc(Oc3ncc(C(F)(F)F)cn3)cc2F)nc2ccc(NC3COC3)cc21 [Compound 542] |  | 
 | < 1 µM | < 10 µM | < 10 µM |  |  | Cn1c(NCc2ccc(Oc3ccc(Cl)cn3)cc2)nc2c(F)cc(NC3COC3)cc21 [Compound 553] |  | 
